Reference: paper PMC6155437 (Molecules : A Journal of Synthetic Chemistry and Natural …, 2017)

Columns and labels:
Type in all cases: in vitro ADME
Conditions in all cases: at 50 µM
CYP2B6 = target: T1, CYP2B6 (Homo sapiens, UniProt P20813); test: CYP2B6 bupropion hydroxylase inhibition in ultrapool human liver microsomes
T1 construct: pooled human liver microsomes (0.2 mg/mL); tissue Corning Life Sciences; host or cells: pooled human liver microsomes (150 donors)
T1 sequence (P20813 1-491): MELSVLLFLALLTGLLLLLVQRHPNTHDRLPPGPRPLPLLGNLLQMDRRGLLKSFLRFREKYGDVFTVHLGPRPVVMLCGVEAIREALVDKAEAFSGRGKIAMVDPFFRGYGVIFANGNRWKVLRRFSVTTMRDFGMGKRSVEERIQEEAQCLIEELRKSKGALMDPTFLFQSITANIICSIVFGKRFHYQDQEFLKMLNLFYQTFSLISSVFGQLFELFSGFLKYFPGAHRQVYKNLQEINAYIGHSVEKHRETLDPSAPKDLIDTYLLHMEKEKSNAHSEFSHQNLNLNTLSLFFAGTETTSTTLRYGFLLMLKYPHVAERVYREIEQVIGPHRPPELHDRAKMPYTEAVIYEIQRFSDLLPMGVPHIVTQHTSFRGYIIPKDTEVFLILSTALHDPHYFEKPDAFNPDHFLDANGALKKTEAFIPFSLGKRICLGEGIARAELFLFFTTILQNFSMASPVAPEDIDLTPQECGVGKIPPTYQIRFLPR
Method: All incubations were performed in triplicate, and average values were used.
(§1) The metabolites formed from CYP substrates were quantified simultaneously by a LC-MS/MS method described previously. The ESI source settings in positive-ion mode for metabolite ionization were: capillary voltage, 4200 V; vaporizer temperature, 350 °C; capillary temperature, 330 °C; sheath gas pressure, 35 psi; and auxiliary gas pressure, 15 psi. […] Analytical data were processed using Xcalibur software (version 2.1, Thermo Scientific).
(§2) The apparent kinetic parameters for inhibitory potential (Ki and kinact values) and inhibition mode were estimated from the fitted curves using the Enzyme Kinetics program (ver. 1.1; Systat Software Inc., San Jose, CA, USA).

CYP1A2 = target: T2, CYP1A2 (Homo sapiens, UniProt P05177); test: CYP1A2 phenacetin O-deethylase inhibition in pooled human liver microsomes (substrate cocktail, LC-MS/MS)
T2 construct: pooled human liver microsomes (0.2 mg/mL); tissue Corning Life Sciences; host or cells: pooled human liver microsomes (150 donors)
T2 sequence (P05177 1-516): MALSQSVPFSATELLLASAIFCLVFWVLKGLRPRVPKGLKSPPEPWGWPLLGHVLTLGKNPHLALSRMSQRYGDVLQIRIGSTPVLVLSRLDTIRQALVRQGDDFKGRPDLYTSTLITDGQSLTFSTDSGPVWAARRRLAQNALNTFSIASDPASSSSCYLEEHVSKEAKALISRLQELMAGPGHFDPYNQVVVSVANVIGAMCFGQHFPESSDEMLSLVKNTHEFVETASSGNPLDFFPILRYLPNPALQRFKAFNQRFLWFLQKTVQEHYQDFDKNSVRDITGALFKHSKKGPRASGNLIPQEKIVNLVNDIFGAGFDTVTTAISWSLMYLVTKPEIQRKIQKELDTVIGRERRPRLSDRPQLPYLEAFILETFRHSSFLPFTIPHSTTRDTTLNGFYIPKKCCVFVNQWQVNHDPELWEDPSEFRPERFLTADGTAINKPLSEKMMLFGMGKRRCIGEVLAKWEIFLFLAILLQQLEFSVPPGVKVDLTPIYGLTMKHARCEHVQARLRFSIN
Method: (§3) After a 3-min pre-incubation at 37 °C, the reactions were initiated by addition of NADPH and incubation proceeded for 15 min at 37 °C in a shaking water bath. […] The incubation mixtures were centrifuged (13,000× g, 4 min, 4 °C). All assays were performed in triplicate and mean values were used in calculations.
(§4) Each reaction was initiated by adding the seven-CYP probe substrate cocktail.
as §1, §2

CYP2A6 = target: T3, CYP2A6 (Homo sapiens, UniProt P11509); test: CYP2A6 coumarin 7-hydroxylase inhibition in pooled human liver microsomes (substrate cocktail, LC-MS/MS)
T3 construct: pooled human liver microsomes (0.2 mg/mL); tissue Corning Life Sciences; host or cells: pooled human liver microsomes (150 donors)
T3 sequence (P11509 1-494): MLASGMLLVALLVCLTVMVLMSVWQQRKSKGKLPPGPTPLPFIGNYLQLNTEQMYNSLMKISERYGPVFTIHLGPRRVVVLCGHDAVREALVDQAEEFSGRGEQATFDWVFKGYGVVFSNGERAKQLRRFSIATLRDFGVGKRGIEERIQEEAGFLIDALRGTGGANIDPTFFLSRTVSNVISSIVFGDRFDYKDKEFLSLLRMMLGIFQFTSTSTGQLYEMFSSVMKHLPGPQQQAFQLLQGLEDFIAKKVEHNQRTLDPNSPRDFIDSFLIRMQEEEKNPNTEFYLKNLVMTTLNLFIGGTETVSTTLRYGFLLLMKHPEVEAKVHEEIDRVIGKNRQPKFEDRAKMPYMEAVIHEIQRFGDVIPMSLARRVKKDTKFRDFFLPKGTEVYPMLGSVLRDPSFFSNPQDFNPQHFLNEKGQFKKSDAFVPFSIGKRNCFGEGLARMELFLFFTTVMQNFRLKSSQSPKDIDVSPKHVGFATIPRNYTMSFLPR
Method: as §3, §4, §1, §2

UGT1A4 = target: T4, UGT1A4 (Homo sapiens, UniProt P22310); test: UGT1A4 trifluoperazine N-glucuronidation inhibition in human liver microsomes
T4 construct: pooled human liver microsomes (0.2 mg/mL), 5 mM UDPGA; tissue Corning Life Sciences; host or cells: pooled human liver microsomes (150 donors)
T4 sequence (P22310 29-534): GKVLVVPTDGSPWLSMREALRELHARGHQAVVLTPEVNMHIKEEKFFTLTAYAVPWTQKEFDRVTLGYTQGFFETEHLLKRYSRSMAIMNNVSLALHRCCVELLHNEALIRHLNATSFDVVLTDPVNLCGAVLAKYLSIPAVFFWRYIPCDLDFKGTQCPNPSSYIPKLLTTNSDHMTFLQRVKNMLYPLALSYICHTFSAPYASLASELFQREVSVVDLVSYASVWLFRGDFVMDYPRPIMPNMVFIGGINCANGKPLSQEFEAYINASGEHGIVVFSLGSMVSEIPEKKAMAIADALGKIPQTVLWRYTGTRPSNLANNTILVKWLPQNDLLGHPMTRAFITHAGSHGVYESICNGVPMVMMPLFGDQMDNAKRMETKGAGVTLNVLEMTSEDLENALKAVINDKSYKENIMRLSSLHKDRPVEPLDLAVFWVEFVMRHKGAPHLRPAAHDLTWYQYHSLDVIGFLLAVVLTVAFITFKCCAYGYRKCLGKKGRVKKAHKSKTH
Method: After 3 min of pre-incubation at 37 °C, the reactions were initiated by addition of UDPGA; incubation continued for 60 min at 37 °C in a shaking water bath. The reaction was stopped by placing the tubes on ice and adding 50 µL ice-cold acetonitrile containing internal standards (propofol glucuronide for chenodeoxycholic acid 24-acyl-β-glucuronide and mycophenolic acid glucuronide, and meloxicam for SN-38 glucuronide, trifluoperazine glucuronide, N-acetylserotonin β-D-glucuronide, and naloxone 3-β-D-glucuronide). The incubation mixtures were centrifuged (13,000× g, 4 min, 4 °C). All assays were performed in triplicate and average values were used in calculations.
The metabolites formed from the six UGT cocktail substrates were measured simultaneously using the LC-MS/MS method. The ESI source settings in both positive- and negative-ion modes for metabolite ionization were: capillary voltage, 4200 V; vaporizer temperature, 350 °C; capillary temperature, 330 °C; sheath gas pressure, 35 psi; and auxiliary gas pressure, 15 psi. […] Data were processed using Xcalibur software.
as §2

O=C(c1cccc2ccccc12)c1cn(CCCCCF)c2ccccc12 [AM-2201, 1-(5-fluoropentyl-1H-indol-3-yl)-(naphthalene-1-yl)methanone]
negligibly inhibited: inhibition of CYP2B6-mediated bupropion hydroxylation (CYP2B6) | inhibition of CYP1A2-mediated phenacetin O-deethylation (CYP1A2) | inhibition of CYP2A6-mediated coumarin 7-hydroxylation (CYP2A6) | inhibition of UGT1A4-catalyzed trifluoperazine N-glucuronidation (UGT1A4)
